Measurements as given in PubChem BioAssay (NCI).
Values joined by “and” are separate entries in the source; they are usually repeats but may differ in a detail not shown here. Identical values can stand only once.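 Compound exposure: 48 hours, 5 concentrations, 96-well plates. At the GI50, growth is halved. TGI marks complete inhibition of growth.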

Key:
Assay in all cases: DTP human tumour cell line panel, 48 h
[1] = test system: HCT-15 colon
[2] = test system: IGROV1 ovarian
[3] = test system: NCI-H522 lung
[4] = test system: RXF 393 renal
[5] = test system: SNB-75 CNS
[6] = test system: UACC-257 melanoma
[7] = test system: DU-145 prostate
[8] = test system: HOP-62 NSCLC
[9] = test system: T-47D breast
[10] = test system: MDA-MB-231 breast

CC(=O)OCCC(O[Si](c1ccccc1)(c1ccccc1)C(C)(C)C)C(C)(C)O (stereo not drawn)
TGI [1]: > 100 µM
TGI [2]: > 100 µM
TGI [3]: 46.8 µM
TGI [4]: 36.6 µM
TGI [5]: > 100 µM
TGI [6]: > 100 µM

NC(=O)C(=O)n1ncc(Cl)c(Cl)c1=O
TGI [7]: > 100 µM
TGI [1]: > 76.4 µM
TGI [8]: > 100 µM
TGI [2]: > 77.4 µM
TGI [3]: 20.6 µM
TGI [4]: > 43.1 µM
TGI [5]: > 69.7 µM
TGI [9]: > 100 µM
TGI [6]: 58.4 µM

C=CC1=CC(C)C[C@]1(O)C(=O)OC (stereo partly drawn)
TGI [1]: > 100 µM
GI50 [8]: > 100 µM
GI50 [2]: > 100 µM
TGI [3]: > 100 µM
GI50 [4]: > 100 µM
GI50 [5]: > 100 µM
GI50 [6]: > 100 µM

Cc1ccccc1NC(=O)C(=O)CC(=O)c1ccc([N+](=O)[O-])cc1
TGI [1]: > 100 µM
TGI [8]: > 100 µM
TGI [2]: > 100 µM
TGI [4]: > 100 µM
TGI [5]: > 100 µM
TGI [6]: > 100 µM

C/C(=N/NC(=O)CC(=O)N(C(=O)c1ccccc1Cl)c1ccc(C)cc1)c1cc2ccccc2oc1=O
TGI [1]: > 100 µM
TGI [8]: > 100 µM
TGI [2]: > 100 µM
TGI [3]: > 100 µM
TGI [4]: > 100 µM
TGI [5]: > 100 µM
TGI [6]: > 100 µM

CN(C)C(=O)SC1=C(c2c(Cl)cccc2Cl)C(=O)c2ccccc21
GI50 [7]: 2.4 µM
TGI [7]: 5.61 µM
GI50 [1]: 2.2 µM
TGI [1]: 6.28 µM
GI50 [8]: 18.7 µM
TGI [8]: 36.7 µM
GI50 [2]: 4.78 µM
TGI [2]: 11.4 µM
GI50 [10]: 5.6 µM
TGI [10]: 13.7 µM
GI50 [3]: 1.74 µM
TGI [3]: 4.05 µM
GI50 [4]: 4.18 µM
TGI [4]: 8.59 µM
GI50 [5]: 7.94 µM
TGI [5]: 23.9 µM
GI50 [6]: 5.16 µM
TGI [6]: 9.81 µM

CC12OC(C(=O)C13CCC3)C1C(=O)c3ccccc3C(=O)C12 (stereo not drawn)
GI50 [1]: > 100 µM
TGI [1]: > 100 µM
GI50 [8]: > 100 µM
TGI [8]: > 100 µM
GI50 [2]: > 100 µM
TGI [2]: > 100 µM
GI50 [10]: 10.4 µM
TGI [10]: > 100 µM
GI50 [3]: > 100 µM
TGI [3]: > 100 µM
GI50 [5]: > 100 µM
TGI [5]: > 100 µM
GI50 [9]: 44 µM
TGI [9]: > 100 µM
GI50 [6]: 44 µM
TGI [6]: > 100 µM

O=C(Nc1cc(S(=O)(=O)c2ccc(Cl)cc2)ccc1Cl)c1cc(I)cc(I)c1O
GI50 [7]: 17.2 µM
TGI [7]: 30.9 µM
GI50 [1]: 16.5 µM
TGI [1]: 32.7 µM
GI50 [8]: 18.6 µM
TGI [8]: 34.1 µM
GI50 [2]: 20 µM
TGI [2]: 37.7 µM
GI50 [10]: 17.4 µM
TGI [10]: 36.5 µM
GI50 [3]: 11.8 µM
TGI [3]: 26.6 µM
GI50 [4]: 15.1 µM
TGI [4]: 35.5 µM
GI50 [5]: 19.7 µM
TGI [5]: 43.1 µM
GI50 [6]: 18.4 µM
TGI [6]: 42.1 µM

O=C(O)[C@@H]1CCCC[C@@H]1C(=O)N(C1CCCCC1)C1CCCCC1
TGI [1]: > 100 µM
TGI [8]: > 100 µM
TGI [2]: > 100 µM
TGI [3]: > 100 µM
TGI [5]: > 100 µM
TGI [6]: > 100 µM

O=C(/C=C/c1cn(-c2ccccc2)nc1-c1ccc([N+](=O)[O-])cc1)c1ccc(Cl)cc1
GI50 [8]: 14.9 µM
TGI [8]: 51.1 µM
GI50 [2]: 3.54 µM
TGI [2]: > 100 µM
GI50 [10]: 2.9 µM
TGI [10]: > 100 µM
GI50 [3]: 6.41 µM
TGI [3]: > 100 µM
GI50 [4]: 1.92 µM
TGI [4]: 5.19 µM
GI50 [5]: 1.65 µM
TGI [5]: 4.84 µM
GI50 [9]: 1.22 µM
TGI [9]: > 100 µM
GI50 [6]: > 100 µM
TGI [6]: > 100 µM

C/C(=N/O)c1ccc2c(c1)C(=NO)c1cc(/C(C)=N/O)ccc1-2
TGI [1]: 36.3 µM
TGI [8]: 28.3 µM
TGI [2]: 49.2 µM
TGI [3]: 53.3 µM
TGI [4]: 48.8 µM
TGI [5]: 36.3 µM
TGI [6]: 5.87 µM

CC(=O)Oc1ccc(C2(c3ccc(OC(C)=O)cc3)C(=O)Nc3ccccc32)cc1
GI50 [7]: 24.4 µM and 28.7 µM
TGI [7]: > 70.4 µM and 95.3 µM
GI50 [1]: 20.5 µM and 25.8 µM
TGI [1]: > 100 µM
GI50 [8]: 34.7 µM and 35.1 µM
TGI [8]: > 100 µM
GI50 [2]: 11.2 µM and 16.8 µM
TGI [2]: 81.3 µM and > 100 µM
GI50 [10]: 25.6 µM and 37.8 µM
TGI [10]: > 100 µM
GI50 [3]: 3.12 µM and 4.56 µM
TGI [3]: > 100 µM
GI50 [5]: 17.2 µM and 23.8 µM
TGI [5]: 59 µM and > 79.9 µM
GI50 [9]: 0.031 µM and 0.0327 µM
TGI [9]: 0.112 µM and 0.129 µM
GI50 [6]: 24.1 µM and 28.2 µM
TGI [6]: 79.4 µM and > 100 µM

NC(N)=N/N=C/c1c(-c2ccc(Cl)c([N+](=O)[O-])c2)nc2n1CCS2
GI50 [7]: 14.5 µM
TGI [7]: 28.2 µM
GI50 [1]: 23.1 µM
TGI [1]: 67.3 µM
GI50 [8]: 2.83 µM
TGI [8]: 9.44 µM
GI50 [10]: 2.88 µM
TGI [10]: 8.86 µM
GI50 [3]: 35.6 µM
TGI [3]: > 100 µM
GI50 [5]: 16 µM
TGI [5]: 37.9 µM
GI50 [9]: 21.6 µM
TGI [9]: 50.2 µM
GI50 [6]: 20.6 µM
TGI [6]: 51.8 µM

CC(C)(C)c1cc(CCC(=O)Nc2ccc(Cl)cc2Cl)nc(N)n1
TGI [1]: > 100 µM
TGI [8]: > 100 µM
TGI [2]: > 100 µM
TGI [4]: > 100 µM
TGI [6]: > 100 µM

CCCCCCCCCCCCCCCCS(=O)(=O)c1ccc(NN)cc1
TGI [7]: > 10 µM
TGI [1]: > 10 µM
TGI [8]: > 10 µM
TGI [2]: > 10 µM
TGI [10]: > 10 µM
TGI [3]: > 10 µM
TGI [4]: > 10 µM
TGI [9]: > 10 µM
TGI [6]: > 10 µM

CCC(=O)c1cc([N+](=O)[O-])c(Br)s1
GI50 [7]: 4.31 µM
TGI [7]: 13.3 µM
GI50 [1]: 2.47 µM
TGI [1]: 8.21 µM
GI50 [8]: 2.25 µM
TGI [8]: 4.54 µM
GI50 [10]: 6.79 µM
TGI [10]: 21.3 µM
GI50 [3]: 0.904 µM
TGI [3]: 2.2 µM
GI50 [4]: 1.88 µM
TGI [4]: 3.31 µM
GI50 [5]: 10.4 µM
TGI [5]: 22.2 µM
GI50 [6]: 1.21 µM
TGI [6]: 2.52 µM

COc1ccc2[nH]c3c(=O)[nH]ncc3c2c1
TGI [1]: > 100 µM
TGI [8]: > 100 µM
TGI [2]: > 100 µM
TGI [3]: > 100 µM
TGI [5]: 57.4 µM
TGI [6]: > 100 µM

CCOC(=O)C[C@@]12CCCNC1(C)CCc1ccccc12 (stereo partly drawn)
TGI [1]: > 100 µM
TGI [8]: > 100 µM
TGI [2]: > 100 µM
TGI [6]: > 100 µM

Cc1ccc(-n2c3c(c4c(CN5CCOCC5)c(O)ccc42)CCc2ccccc2C3=O)cc1
GI50 [7]: > 100 µM
TGI [7]: > 100 µM
GI50 [1]: > 100 µM
TGI [1]: > 100 µM
GI50 [8]: > 100 µM
TGI [8]: > 100 µM
GI50 [2]: 23.3 µM
TGI [2]: > 100 µM
GI50 [10]: 37.8 µM
TGI [10]: > 100 µM
GI50 [3]: 34.5 µM
TGI [3]: > 100 µM
GI50 [4]: 25.9 µM
TGI [4]: > 100 µM
GI50 [9]: > 100 µM
TGI [9]: > 100 µM
GI50 [6]: > 100 µM
TGI [6]: > 100 µM
